Reference: patent US20240082282A1 (priority 2020, published 2024)

System: murine gut microbiome
Assay: Impact on the murine fecal microbiome (16S rRNA sequencing)
Conditions: mouse, in vivo
Experimental: Stool samples were collected and V4 region of the 16s rRNA gene was amplified using primers and sequenced (IonTorrent).
Fecal pellets were collected 3 days before and 3 days after antibiotic treatment and were stored at −80° C. in PBS. Sequencing of a stool pellet from each mouse from before and after treatment was performed by MR DNA (www.mrdnalab.com, Shallowater, TX, USA) on an Ion Torrent PGM. Using PCR primers, the V4 variable region of the 16SrRNA gene was amplified in a single-step 30 cycle PCR with the HotStarTaq Plus Master Mix Kit (Qiagen, USA). The following conditions were used: 94° C. for 3 minutes and 30 cycles of 94° C. for 30 seconds, 53° C. for 40 seconds and 72° C. for 1 minute, then a final elongation step for 5 minutes at 72° C. […] Barcodes and primers and then sequences<150 bp were removed. Further, sequences with homopolymer runs exceeding 6 bp and sequences with ambiguous calls were removed. The sequences were then denoised, OTUs were generated, and chimeras were removed; OTUs were clustered at 3% divergence. Taxonomic classification was performed using BLASTn against a database derived from RDPII available at www.rdp.cme.msu.edu) and NCBI (www.ncbi.nlm.nih.gov). The change in relative abundance of the most abundant genera from before to after treatment of each individual mouse was reported. Further, raw sequences were processed in Qiita (Gonzalez, A., et al. (2018). Nat Methods 15, 796-798; the contents of which are herein incorporated by reference in its entirety) and were demultiplexed, trimmed to 100 bp, and closed reference OTU picking was performed against the Greengenes database at 97% similarity (McDonald, D. et al. (2012). ISME J 6, 610-618; the contents of which are herein incorporated by reference in its entirety). The alpha diversity based on the Simpson index was calculated in Qiita. The change in the Simpson index was calculated for the fecal microbiome of each mouse from before to after treatment. Statistical significance was calculated using a one-way ANOVA with Tukey's multiple comparisons test (p<0.05).

Changes in the composition of the microbiota: significant changes
Structure (SMILES): CC1(C)S[C@@H]2[C@H](NC(=O)[C@H](N)c3ccccc3)C(=O)N2[C@H]1C(=O)O [Ampicillin, reference compound]
